Data as given in patent US12559471B2, “1,5-dihydro-2,4-benzodiazepine-3-one derivative and application thereof” (JIANGSU NHWA PHARMACEUTICAL CO., LTD, priority 2020, dated 2026).
Several values for one entry are separate records, joined by “and”; a condition that tells them apart may be missing. Identical values can stand only once.

Experiments:
[1] = Investigation of sedation side effects (autonomic activity, movement distance); type: in vivo, mice; conditions: mouse, in vivo, ip; C57BL/6j mice, intraperitoneal, 45 min after administration
Description: (§1) 1.3 Investigation of Sedation Side Effects (Anti-Sedation Model)
(§2) According to different doses of each group, solutions at different concentrations were separately formulated for intraperitoneal injection, with the final administration volume of 10 mL/kg.
(§3) The movement at 0-20 min was recorded on video, and the movement distance in 20 min was analyzed by Top Scan 3.00 software. The inhibition rate of each group relative to the blank group after the administration were calculated, and the sedation effects of the compounds were comprehensively evaluated in combination with a statistical conclusion.

C57BL/6j mice = assay: as above; type: in vivo; conditions: sedation ED50 / PDP efficacy ED50
Description: as §1, §2, §3

5-HT2C receptor = 5-HT2C receptor (Rattus norvegicus (Rat), UniProt P08909); conditions: read-out: 5-HT2C (Ki value); rat cortex membrane, 3H-Mesulergine
Chain of 5-HT2C receptor (P08909 33-460): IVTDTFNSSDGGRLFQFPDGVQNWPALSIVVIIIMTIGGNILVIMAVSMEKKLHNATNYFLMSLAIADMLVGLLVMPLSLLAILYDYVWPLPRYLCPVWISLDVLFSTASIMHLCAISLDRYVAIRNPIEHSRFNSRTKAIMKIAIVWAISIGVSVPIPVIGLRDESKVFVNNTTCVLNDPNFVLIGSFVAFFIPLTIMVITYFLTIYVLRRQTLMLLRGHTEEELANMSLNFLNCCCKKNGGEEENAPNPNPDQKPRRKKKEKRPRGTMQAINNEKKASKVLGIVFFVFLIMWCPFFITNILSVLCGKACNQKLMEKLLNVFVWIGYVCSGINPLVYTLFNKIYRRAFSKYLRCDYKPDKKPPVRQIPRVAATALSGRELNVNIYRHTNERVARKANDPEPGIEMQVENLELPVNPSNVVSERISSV
Description: 2) Preparation of 5-HT2C Membrane
The rat cortex was taken out of a refrigerator at −80° C. and thawed spontaneously. The solution A was added, and the mixture was homogenized for 3-4 s at 4th gear for a total of 4 times and centrifuged at 50000 g for 25 min at 4° C. The supernatant was discarded, and the solution A was added into the precipitate. The mixture was mixed well using a vortex mixer and centrifuged at 50000 g for 25 min at 4° C. (repeated twice). The supernatant was discarded after the centrifugation, and the precipitate was stored at −80° C. for later use.
2) Competitive 5-HT2C Receptor Binding Assay
Step 1: the prepared membrane was suspended in the homogenate B to obtain a 210 mg/mL membrane suspension for later use.
Step 2: 100 μL of the membrane suspension was added into each reaction tube.
Step 3: 100 μL of the solution B was added into a total binding tube (TB), 100 μL of Ketanserin (final concentration: 1.0×10^−5 M) was added into a non-specific binding tube (NB), and 100 μL of test compound was added into each compound binding tube (CB).
Step 4: 10 μL of radioligand ^3H-Mesulergine was added into each reaction tube to reach a final concentration of 3 nM.
Step 5: each reaction tube was incubated at 37° C. for 25 min. After the reaction was completed, the binding ligands were rapidly filtered under reduced pressure, wherein the Whatman test paper GF/C was washed with 0.5% PEI solution 1 h in advance. The filter membrane was fully washed with cold Tris buffer solution, taken out and put into a 4 mL scintillation disc, which was then added with 1 mL toluene scintillation solution and shaken for mixing well.
Step 6: the scintillation disc was put into a liquid scintillation counter for counting.

[2] = tested on: MPTP+APO-induced climbing behavior in male mice; assay: MPTP+APO-induced climbing behavior in male mice (DA motor deterioration model); type: in vivo
Description: (§4) 1.2 Effect on MPTP+APO-induced climbing behavior in male mice (DA motor deterioration model) Animals were injected with different doses of MPTP intraperitoneally every morning for 5 consecutive days. […] After the subcutaneous injection, animals were immediately placed into a climbing cage (self-made, a cylindrical cage with the diameter of 13 cm and the height of 15 cm, made of a stainless steel wire mesh with the diameter of about 0.1 cm, the bottom of which is a semitransparent polyethylene plate, and the cage cover of which is a stainless steel cage cover), and the behaviors of animals at minutes 10-11, 20-21 and 30-31 after the APO injection was observed and scored.
(§5) Scoring criteria: four feet on the floor scored 0; two forepaws on the cage scored 1; and four feet on the cage scored 2.

5-HT2A receptor = 5-HT2A receptor (Homo sapiens (Human), UniProt P28223); assay: Competitive 5-HT2A receptor binding assay (3H-Ketanserin, CHO-5-HT2A membrane); conditions: for Ki: CHO-5-HT2A membrane, 3H-Ketanserin, read-out: 5-HT2A (Ki value); for 2C/2A: ratio of 5-HT2C Ki to 5-HT2A Ki
Chain of 5-HT2A receptor (P28223 whole entry): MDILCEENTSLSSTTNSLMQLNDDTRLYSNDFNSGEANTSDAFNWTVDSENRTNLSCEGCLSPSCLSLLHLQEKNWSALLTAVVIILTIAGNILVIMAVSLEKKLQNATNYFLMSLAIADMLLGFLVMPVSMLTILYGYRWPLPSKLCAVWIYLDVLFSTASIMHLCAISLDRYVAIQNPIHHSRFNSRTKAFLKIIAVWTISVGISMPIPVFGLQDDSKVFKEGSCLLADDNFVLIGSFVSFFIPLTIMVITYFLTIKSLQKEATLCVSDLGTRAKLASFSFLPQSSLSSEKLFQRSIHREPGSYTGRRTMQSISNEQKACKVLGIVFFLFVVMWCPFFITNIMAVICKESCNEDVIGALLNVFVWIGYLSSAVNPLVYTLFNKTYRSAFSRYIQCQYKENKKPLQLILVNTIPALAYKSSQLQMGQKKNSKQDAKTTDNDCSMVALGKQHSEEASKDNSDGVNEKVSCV
Description: 1) Preparation of CHO-5-HT2A Receptor Membrane
The precipitate was collected, and the supernatant was discarded. The solution B was added into the precipitate. […] The supernatant was carefully discarded, and the solution B was added into the precipitate again. […] The precipitate obtained was stored at −80° C.
1) Competitive 5-HT2A Receptor Binding Assay
Step 2: 100 μL of the membrane preparation was added into each reaction tube.
After the filtration, the filter membrane was dried at 60° C. and added into a scintillation disc attached with a bottom membrane, which was then added with 40 μL of scintillation liquid, sealed with a top membrane, and left to stand.

hERG potassium channel = hERG potassium channel (Homo sapiens (Human), UniProt Q12809); assay: In vitro hERG assay, whole-cell patch clamp in HEK-293 cells; type: cell-based; conditions: HEK-293 cells stably expressing hERG, room temperature
Chain of hERG potassium channel (Q12809 whole entry): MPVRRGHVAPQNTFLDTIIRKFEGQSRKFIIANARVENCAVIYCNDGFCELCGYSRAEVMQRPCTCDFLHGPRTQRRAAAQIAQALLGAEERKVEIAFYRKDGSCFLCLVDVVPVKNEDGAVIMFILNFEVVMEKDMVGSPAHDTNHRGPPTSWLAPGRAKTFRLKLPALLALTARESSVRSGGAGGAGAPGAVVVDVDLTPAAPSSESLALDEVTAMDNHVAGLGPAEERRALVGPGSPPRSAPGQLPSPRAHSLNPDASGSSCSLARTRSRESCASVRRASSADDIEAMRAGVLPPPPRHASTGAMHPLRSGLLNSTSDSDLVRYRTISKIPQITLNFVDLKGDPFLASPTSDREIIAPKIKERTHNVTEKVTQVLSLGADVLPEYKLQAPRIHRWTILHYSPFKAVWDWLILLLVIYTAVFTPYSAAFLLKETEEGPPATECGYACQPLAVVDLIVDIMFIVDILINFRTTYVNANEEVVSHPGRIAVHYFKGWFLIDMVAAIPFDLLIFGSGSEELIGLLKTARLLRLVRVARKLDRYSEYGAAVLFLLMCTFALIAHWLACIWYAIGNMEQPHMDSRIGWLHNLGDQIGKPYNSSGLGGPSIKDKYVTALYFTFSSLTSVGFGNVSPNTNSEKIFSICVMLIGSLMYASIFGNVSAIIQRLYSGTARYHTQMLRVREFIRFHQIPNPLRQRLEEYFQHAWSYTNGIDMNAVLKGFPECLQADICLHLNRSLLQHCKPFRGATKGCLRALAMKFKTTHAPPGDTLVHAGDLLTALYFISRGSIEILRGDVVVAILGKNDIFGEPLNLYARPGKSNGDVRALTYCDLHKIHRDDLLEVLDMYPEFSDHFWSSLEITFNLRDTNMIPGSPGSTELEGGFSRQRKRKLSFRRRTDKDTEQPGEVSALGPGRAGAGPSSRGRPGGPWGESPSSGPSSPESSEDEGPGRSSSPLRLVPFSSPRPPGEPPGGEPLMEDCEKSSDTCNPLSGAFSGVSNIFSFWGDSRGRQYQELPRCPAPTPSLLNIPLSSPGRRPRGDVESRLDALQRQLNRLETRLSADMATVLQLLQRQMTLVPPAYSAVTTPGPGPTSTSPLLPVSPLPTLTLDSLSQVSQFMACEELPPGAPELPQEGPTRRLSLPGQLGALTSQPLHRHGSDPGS
Description: b. […] The working solutions of the test compounds were ultrasonically treated for 20 min.
The cell suspension was gently pipetted to separate the aggregated cells.
Under an inverted microscope, recording electrodes were controlled by a glass electrode micromanipulator (micromanipulation) to contact with the cell. […] After forming the GΩ seal, a rapid capacitance compensation was given.
Negative control and test compounds flowed through the recording chamber in an ascending order of concentration by gravity perfusion to quickly act on the cells. During the recording, the extracellular fluid was continuously circulated by a vacuum pump. […] Each concentration was allowed to act for 5 min or until the current was stabilized. All experiments were performed at room temperature.
[formula] Basic statistics were calculated for each concentration, including mean, standard deviation (SD), standard error (SE), and replicates (n). The dose-dependent curve was fitted with the following equation and the half maximal inhibitory concentration (IC50) of the test compounds was calculated:
Curve fitting and calculation of IC50 were performed by GraphPad Prism 5.0 software. 5. Experimental Results

[3] = tested on: MPTP+MK-801-induced Parkinson's disease mouse model; assay: MPTP+MK-801-induced Parkinson's disease mouse model (anti-PDP efficacy model); type: in vivo; conditions: ip, mice, intraperitoneal, read-out: PDP efficacy (high activity) ED50
Description: 1.1 Effect on MPTP+MK-801-induced Parkinson's disease mouse model (anti-PDP efficacy model)
Animals were injected with different doses of MPTP(1-methyl-4-phenyl-1,2,3,6-tetrahydropyridine) intraperitoneally every morning for 5 consecutive days. […] Then, after an interval of 0.25 h, the mice were placed into an autonomous activity test box (a black polyethylene box with the specification of 29 cm×29 cm×30 cm) for video recording for 20 min. Video analysis was performed after the video recording to evaluate the activity of the mice.

[4] = tested on: DOI-induced head shaking behavior of mice; assay: DOI-induced head shaking (head thrust) test in mice; type: in vivo; conditions: Mus musculus, intragastric, DOI 1 mg/kg i.p., 0-20 min, read-out: ED50 for inhibiting the DOI-induced head shaking behavior
Description: 1. Head Thrust Test in Mice
Mice were stratified according to body weight and then randomly divided into a model control group, a blank control group and drug administration groups. 1 h after the intragastric administration of a vehicle or a drug, the animals were placed in a beaker (with the diameter of 13 cm and the height of 19 cm) paved with fresh padding, and were injected with a modeling drug DOI ((±)-1-(2,5-dimethoxy-4-iodophenyl)-2-aminopropane hydrochloride or (±)-2,5-dimethoxy-4-iodoamphetamine hydrochloride) intraperitoneally at a dose of 1 mg/kg. The head shaking times of the mice during the 0-20 min after the intraperitoneal injection of DOI were recorded. The head shaking behavior is defined as a rapid rotational twitching or wet dog-like shaking of the mouse head, which is distinguished from normal grooming or exploring behavior.

[5] = tested on: DOI-induced PPI impairment in rats; assay: DOI-induced PPI impairment test in rats (intervention test); type: in vivo; conditions: DOI 0.5 mg/kg; for reversal of DOI-induced PPI impairment: P<0.05
Description: 3. DOI ((f)-1-(2,5-dimethoxy-4-iodophenyl)-2-aminopropane hydrochloride or (f)-2,5-dimethoxy-4-iodoamphetamine hydrochloride) induced PPI impairment effect test in rats
30 min after the intragastric administration of a drug (or a vehicle) and 30 min after the subcutaneous injection of DOI at 0.5 mg/kg at the neck, namely 60 min after the intragastric administration, the rats were placed into a startle reflex test box for testing.
(§6) The test was performed according to literature and preliminary experiments, and the specific process was as follows: first an adaptation period of 5 min was given (62 dB background sound), and 5 separate startle reflex stimuli were given after the adaptation period (blockl, results not included in the analysis to reduce the initial response of the animals to a plateau level), followed by 4 different types of tests (block2) presented in a pseudo-random manner, namely: 1) startle reflex stimulus alone (pulse-alone, 120 dB, lasting 20 ms); 2) prepulse stimulus alone 13 dB above the background sound (prepulse-alone, 75 dB, lasting 20 ms); 3) prepulse stimulus in combination with startle reflex stimulus, each lasting 20 ms, with an interval of 100 ms; and 4) no stimulus in which only the background sound was given (no stimulus). Each trial was performed 5 times, with an average interval of 20 s (10-30 s) between trials.
(§7) The response amplitude of the startle reflex stimulus alone or the prepulse stimulus in combination with startle reflex stimulus was expressed as the AVG (instrument-specific unit) value, which indirectly reflects the size of the flinching response of the rat body. Evaluation index: PPI %=(1−response amplitude of prepulse stimulus in combination with startle reflex stimulus/response amplitude of startle reflex stimulus alone)×100. The higher the value is, the greater the degree of the inhibition is.

[6] = tested on: MK-801-induced high activity behavior of mice; assay: Dizocilpine (MK-801)-induced high activity test in mice; type: in vivo; conditions: Mus musculus, 1 h, intragastric, MK-801 0.3 mg/kg i.p., 60 min, read-out: ED50 for inhibiting the MK-801-induced high activity behavior
Description: 2. Dizocilpine (MK-801)-Induced High Activity Test in Mice 2.1 Test Method
Mice were stratified according to body weight and then randomly divided into a model control group, a blank control group and drug administration groups. After the administration of a test substance (or a control substance), the mice were placed into an autonomous activity test box (a black polyethylene box with the specification of 29 cm×29 cm×30 cm) for adaptation, and injected with MK-801 at 0.3 mg/kg intraperitoneally 1 h after the intragastric administration. The mice were then placed into the autonomous activity test box for video recording for 60 min. Video analysis was performed after the video recording to evaluate the activity of the mice.

PPI in normal rats = PPI in normal rats (dosing test, normal saline instead of DOI); type: in vivo; conditions: for PPI %, MEAN / PPI %, individual animal: normal saline
Description: as §6
as §7, with “is. Dosing Test:” for “is.”
The DOI at 0.5 mg/kg administered to animals in the above groups was changed to normal saline (NS), and other operations including administration and testing were the same as those in the intervention test.

5-HT2B receptor = 5-HT2B receptor (Homo sapiens (Human), UniProt P41595); conditions: background statement, no significant affinity; cited from earlier work
Chain of 5-HT2B receptor (P41595 whole entry): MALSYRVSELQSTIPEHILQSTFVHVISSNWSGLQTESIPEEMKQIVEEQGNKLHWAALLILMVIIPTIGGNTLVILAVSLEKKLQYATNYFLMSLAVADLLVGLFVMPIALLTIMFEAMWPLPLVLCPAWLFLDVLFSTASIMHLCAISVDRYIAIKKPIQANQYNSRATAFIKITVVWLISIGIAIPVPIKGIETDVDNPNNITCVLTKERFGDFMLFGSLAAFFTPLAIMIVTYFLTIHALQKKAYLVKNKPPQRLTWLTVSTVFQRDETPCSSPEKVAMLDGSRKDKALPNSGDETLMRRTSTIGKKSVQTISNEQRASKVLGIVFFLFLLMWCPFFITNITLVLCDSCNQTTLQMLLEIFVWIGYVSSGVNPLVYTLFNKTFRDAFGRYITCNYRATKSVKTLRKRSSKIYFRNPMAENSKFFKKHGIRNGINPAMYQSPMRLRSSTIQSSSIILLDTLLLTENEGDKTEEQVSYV

[7] = MPTP+APO-induced climbing behavior in male mice (DA motor deterioration model); type: in vivo; conditions: mouse, in vivo, ip; male mice, intraperitoneal; read-out: DA side effects (climbing motor deterioration) ED50
Description: as §4, §5

calcium channel receptor = conditions: background statement, no significant affinity; cited from earlier work
muscarinic receptor = conditions: background statement, no significant affinity; cited from earlier work
adrenergic receptor = conditions: background statement, no significant affinity; cited from earlier work

## CC(C)COc1ccc(CN2Cc3cc(F)ccc3CN(C3CCN(C)CC3)C2=O)cc1 [NH-K-A19001, 7-fluoro-2-(1-methylpiperidin-4-yl)-4-[[4-(2-methylpropoxy)phenyl]methyl]-1,5-dihydro-2,4-benzo diazepine-3-one]
[1]
  ED50 at 45 min: 3.74 mg/kg
C57BL/6j mice
  Ratio of sedation ED50 to PDP efficacy ED50: 11.33
5-HT2C receptor
  Ki: 2.4 nM
[2]; observation in words
  motor deterioration (DA mechanism of action): no motor deterioration is observed
5-HT2A receptor
  Ki: 0.028 nM
  2C/2A: 86.327
hERG potassium channel
  IC50: 260 nM
[3]
  ED50: 0.33 mg/kg
[4]
  ED50: 0.06 mg/kg

## CN1CCC(N2Cc3cc(F)ccc3CN(Cc3ccc(OC4CC4)cc3)C2=O)CC1 [NH-K-A19006, 8-fluoro-2-(1-methylpiperidin-4-yl)-4-[[4-(cyclopropoxy)phenyl]methyl]-1,5-dihydro-2,4-benzodiazepine-3-one]
[5]; 0.3 mg/kg
  reversal of DOI-induced PPI impairment: significantly reverse
[5]; 0.03 mg/kg intragastric
  PPI %, MEAN: 33.01%
  PPI %, individual animal: 49.78% and 58.97% and 53.17% and 2.79% and 32.00% and 8.44% and 20.87% and 38.06%
[5]; 0.1 mg/kg intragastric
  PPI %, MEAN: 43.48%
  PPI %, individual animal: 12.46% and 51.33% and 38.29% and 47.73% and 47.53% and 74.93% and 10.18% and 65.40%
[5]; 0.3 mg/kg intragastric
  PPI %, MEAN: 50.12%
  PPI %, individual animal: 60.53% and 60.18% and 56.91% and 67.62% and 85.73% and 7.56% and 39.78% and 22.65%
[1]
  ED50 at 45 min: 11.9 mg/kg
5-HT2C receptor
  Ki: 1.62 nM
5-HT2A receptor
  Ki: 0.277 nM
  2C/2A: 5.856
[6]
  ED50: 0.265 mg/kg
hERG potassium channel
  IC50: 1190 nM
[3]
  ED50: 0.31 mg/kg
[4]
  ED50: 0.012 mg/kg
PPI in normal rats; 0.3 mg/kg
  effect on PPI in normal rats: no significant effects were seen
PPI in normal rats; 0.03 mg/kg intragastric
  PPI %, MEAN: 68.69%
  PPI %, individual animal: 81.41% and 91.96% and 55.90% and 54.35% and 60.94% and 74.39% and 87.22% and 43.35%
PPI in normal rats; 0.1 mg/kg intragastric
  PPI %, MEAN: 70.23%
  PPI %, individual animal: 60.40% (2×) and 81.41% and 77.50% and 71.96% and 69.71% and 50.53% and 89.95%
PPI in normal rats; 0.3 mg/kg intragastric
  PPI %, MEAN: 53.62%
  PPI %, individual animal: 47.76% and 42.79% and 68.71% and 70.20% and 55.52% and 65.07% and 16.28% and 62.68%

## CC(C)COc1ccc(CNC(=O)N(Cc2ccc(F)cc2)C2CCN(C)CC2)cc1 [Pimavanserin, reference compound]
[5]; 3 mg/kg
  reversal of DOI-induced PPI impairment: significantly reverse
[5]; 1 mg/kg intragastric
  PPI %, MEAN: 28.93%
  PPI %, individual animal: 30.19% and 7.34% and 12.78% and −9.80% and 36.56% and 57.19% and 55.33% and 41.86%
[5]; 3 mg/kg intragastric
  PPI %, MEAN: 42.65%
  PPI %, individual animal: 25.79% and 45.06% and 35.48% and 4.10% and 30.23% and 62.54% and 62.41% and 75.59%
[5]; 10 mg/kg intragastric
  PPI %, MEAN: 47.32%
  PPI %, individual animal: 69.36% and 54.29% and 71.90% and 24.73% and 32.57% and 37.52% and 33.19% and 55.00%
5-HT2B receptor
  Ki: > 300 nM
[1]
  ED50 at 45 min: 6.79 mg/kg
[7]
  ED50: > 30 mg/kg
[2]; male mice, intraperitoneal
  DA side effects (climbing motor deterioration) ED50: >30 mg/kg
Calcium channel receptor
  Ki: > 300 nM
[6]
  ED50: 3.29 mg/kg
[3]
  ED50: 0.37 mg/kg
Muscarinic receptor
  Ki: > 300 nM
[4]
  ED50: 0.39 mg/kg
Adrenergic receptor
  Ki: > 300 nM
PPI in normal rats; 1 mg/kg intragastric
  PPI %, MEAN: 63.11%
  PPI %, individual animal: 14.80% and 45.96% and 67.95% and 61.11% and 92.15% and 83.93% and 70.62% and 68.32%
PPI in normal rats; 3 mg/kg intragastric
  PPI %, MEAN: 60.54%
  PPI %, individual animal: 76.95% and 37.54% and 42.51% and 64.49% and 42.29% and 71.78% and 84.89% and 63.88%
PPI in normal rats; 10 mg/kg intragastric
  PPI %, MEAN: 57.00%
  PPI %, individual animal: 83.19% and 80.13% and 44.91% and 82.49% and 52.16% and −32.12% and 72.74% and 72.49%
